Results taken from US7989464B2, “mGluR1 antagonists as therapeutic agents” (Schering Corporation, priority 2004, dated 2011).
Read-outs that look alike come from different tables or passages of the source.

Biological target: T1, hmGluR1 receptor (Homo sapiens, UniProt Q13255)
T1 construct: expressed in transfected cells
Assay: IC50 determination: intracellular calcium mobilization (FLIPR) upon Quisqualate stimulation in CHO cells stably expressing hmGluR1
Assay type: cell-based
Conditions: against Quisqualate 1 μM (EC80)
Outline: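 CHO cells stably expressing hmGluR1 were kept overnight in DMEM high glucose with GPT and 1 mM pyruvate, then loaded 2 h with Calcium 3 dye.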

[1] = FLIPR calcium mobilization, read-out: IC50 Class
[2] = class symbols, read-out: mGIuR 1 IC50
[3] = FLIPR calcium mobilization, read-out: mGluR1 IC50

T1 sequence (Q13255 19-1194): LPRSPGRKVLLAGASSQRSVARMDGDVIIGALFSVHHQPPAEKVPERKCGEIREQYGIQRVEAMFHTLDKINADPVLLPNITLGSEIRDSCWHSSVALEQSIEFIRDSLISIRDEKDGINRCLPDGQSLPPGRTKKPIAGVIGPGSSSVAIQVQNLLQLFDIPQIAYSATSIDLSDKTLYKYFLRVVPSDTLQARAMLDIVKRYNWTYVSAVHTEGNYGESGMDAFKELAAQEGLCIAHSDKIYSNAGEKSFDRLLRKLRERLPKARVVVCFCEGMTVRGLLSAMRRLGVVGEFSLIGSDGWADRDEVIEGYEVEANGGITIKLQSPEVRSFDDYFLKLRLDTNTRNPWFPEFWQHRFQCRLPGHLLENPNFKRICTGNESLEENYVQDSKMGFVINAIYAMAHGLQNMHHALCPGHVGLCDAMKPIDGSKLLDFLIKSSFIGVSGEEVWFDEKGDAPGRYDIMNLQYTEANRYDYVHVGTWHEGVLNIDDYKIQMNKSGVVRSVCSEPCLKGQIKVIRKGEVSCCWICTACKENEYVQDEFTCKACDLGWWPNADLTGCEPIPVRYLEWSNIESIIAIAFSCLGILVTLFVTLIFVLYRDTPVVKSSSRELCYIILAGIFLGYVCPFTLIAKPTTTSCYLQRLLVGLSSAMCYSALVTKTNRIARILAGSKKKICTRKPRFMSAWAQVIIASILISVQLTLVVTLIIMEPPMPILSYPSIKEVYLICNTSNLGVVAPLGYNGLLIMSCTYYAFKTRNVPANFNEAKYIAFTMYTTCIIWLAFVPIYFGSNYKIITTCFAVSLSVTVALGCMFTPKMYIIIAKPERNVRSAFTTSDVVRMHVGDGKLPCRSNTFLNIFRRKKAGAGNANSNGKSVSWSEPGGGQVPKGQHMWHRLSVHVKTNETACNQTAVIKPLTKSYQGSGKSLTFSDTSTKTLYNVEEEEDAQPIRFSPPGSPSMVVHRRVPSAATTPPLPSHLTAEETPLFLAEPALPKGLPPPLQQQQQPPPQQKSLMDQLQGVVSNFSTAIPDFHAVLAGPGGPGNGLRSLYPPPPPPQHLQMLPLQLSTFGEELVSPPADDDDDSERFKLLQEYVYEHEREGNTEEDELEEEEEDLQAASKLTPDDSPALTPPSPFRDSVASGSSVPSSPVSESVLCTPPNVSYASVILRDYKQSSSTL

Row | IC50 [1] [nM] | IC50 [2] [nM] | IC50 [3] [nM] | Compound
1 | < 50 |  |  | CSCCNc1ncnc2sc3c(=O)n(-c4ccc(Cl)cc4)cnc3c12 [95FS]
2 | < 50 |  |  | CCc1ccnc2sc3c(=O)n(-c4ccc(Cl)cc4)cnc3c12 [29K]
3 | < 50 |  |  | CNc1ccnc2sc3c(=O)n(-c4ccc(OC)cc4C)cnc3c12 [28BN]
4 | 150 to 1000 |  |  | O=c1c2sc3ncnc(NC4CCC4)c3c2ncn1-c1ccc(Cl)cc1 [95DD]
5 |  | 150 to 1000 |  | Cc1ccc(-n2cnc3c(sc4nc(-c5cccs5)cc(C(F)(F)F)c43)c2=O)cc1 [P-13]
6 |  | < 50 |  | CN(C)c1ccnc2sc3c(=O)n(-c4ccc5c(c4)CCC5)cnc3c12 [7BI]
7 | 50 to 150 |  |  | COc1ccc(-n2cnc3c(sc4nc(Cl)cc(N)c43)c2=O)cc1 [59I]
8 | < 50 |  |  | COc1ccc(-n2cnc3c(sc4nc(Cl)cc(N(C)C)c43)c2=O)cc1 [57C]
9 |  | < 50 |  | CN(C)c1ccnc2sc3c(=O)n(-c4cccc(Br)c4)cnc3c12 [7DL]
10 |  | 50 to 150 |  | Cc1ccc(-n2c(C)nc3c(sc4nccc(NCCO)c43)c2=O)cc1 [113N]
11 |  | < 50 |  | CN(C)c1ccnc2sc3c(=O)n(C4CCCC4)cnc3c12 [7W]
12 |  | > 1000 |  | O=c1c2sc3nccc(NCCc4ccccc4)c3c2ncn1C1CCCCC1 [72F]
13 |  | 150 to 1000 |  | CN1CCC(n2cnc3c(sc4nccc(N(C)C)c43)c2=O)CC1 [15U]
14 |  | < 50 |  | COc1ccc(-n2cnc3c(sc4nccc(N(C)C)c43)c2=O)cc1F [7AP]
15 | 150 to 1000 |  |  | CCc1ccc(-n2cnc3c(sc4nccc(OC)c43)c2=O)cc1 [25G]
16 | < 50 |  |  | CCNc1ncnc2sc3c(=O)n(-c4ccc5ncsc5c4)cnc3c12 [95BK]
17 |  | > 1000 |  | CN(C)c1ccnc2sc3c(=O)n(Cc4ccc(Cl)cc4)cnc3c12 [7I]
18 |  | 50 to 150 |  | CN(C)c1ccnc2sc3c(=O)n(N4CCCC4)cnc3c12 [60I]
19 |  | 150 to 1000 |  | CCCc1ccc(-n2cnc3c(sc4nccc(N(C)C)c43)c2=O)cc1 [7BK]
20 |  | > 1000 |  | COc1ccc(-n2cnc3c(sc4nccc(N(C)C)c43)c2=O)cc1OC [7AD]
21 | < 50 |  |  | O=c1c2sc3ncnc(NC4CC4)c3c2ncn1-c1ccc2c(c1)CCO2 [95DK]
22 | 150 to 1000 |  |  | O=c1c2sc3nccc(N4CCCC4)c3c2ncn1-c1ccc(Br)cc1 [28GT]

Row | IC50 [1] [nM] | IC50 [2] [nM] | IC50 [3] [nM] | Compound
23 |  | < 50 |  | CCN(C)c1ncnc2sc3c(=O)n(-c4ccc(C)cc4)cnc3c12 [95H]
24 |  | > 1000 |  | O=c1c2sc3nccc(O)c3c2ncn1C1CCCCC1 [26A]
25 | < 50 |  |  | CCNc1ccnc2sc3c(=O)n(-c4cccc(F)c4)cnc3c12 [28CQ]
26 |  | 150 to 1000 |  | COc1ccc(-n2cnc3c4c(N(C)C)ccnc4n(C)c3c2=O)cc1 [134B]
27 |  | < 50 |  | COc1ccc(-n2cnc3c(sc4nccc(N(C)C)c43)c2=O)c(F)c1 [7DK]
28 |  | < 50 |  | CCNc1ncnc2sc3c(=O)n(-c4ccc(C)cc4)cnc3c12 [95P]
29 |  | > 1000 |  | O=c1c2sc3nccc(NCc4ccccc4)c3c2ncn1C1CCCCC1 [72E]
30 | 150 to 1000 |  |  | C#CC(CC)(CC)Nc1ccnc2sc3c(=O)n(-c4ccc(C)cc4)cnc3c12 [28EU]
31 |  | < 50 |  | CN(C)c1ccc(-n2cnc3c(sc4nccc(N(C)C)c43)c2=O)cc1 [7AJ]
32 | < 50 |  |  | CCN(C)c1ccnc2sc3c(=O)n(-c4cccc(F)c4)cnc3c12 [28CM]
33 |  | < 50 |  | CN(C)c1cncc2sc3c(=O)n(-c4ccc(Cl)cc4)cnc3c12 [37E]
34 | < 50 |  | 1.46 | C=CCc1cnc2sc3c(=O)n(-c4ccc(Cl)cc4)cnc3c2c1N [178B]
35 |  | 50 to 150 |  | CN(C)c1cc[n+]([O-])c2sc3c(=O)n(-c4ccc(Cl)cc4)cnc3c12 [12B]
36 | < 50 |  |  | Cc1ccc(-n2cnc3c(sc4nc(C)nc(N)c43)c2=O)cc1 [95ET]
37 |  | < 50 |  | CN(C)c1ccnc2sc3c(=O)n(-c4ccc(Br)cc4F)cnc3c12 [7DU]
38 | > 1000 |  |  | Cc1ccc(-n2cnc3c(sc4ncnc(NCC(C)(C)C)c43)c2=O)cc1 [95FP]
39 | > 1000 |  |  | COc1ccc(-n2cnc3c(sc4nccc(OC)c43)c2=O)c(F)c1 [25E]
40 | < 50 |  |  | Cc1ccc(-n2cnc3c(sc4nccc(NC5CC5)c43)c2=O)cc1F [131L]
41 |  | > 1000 |  | COc1ccc(Cn2c3nccc(N(C)C)c3c3ncn(-c4ccc(C)cc4)c(=O)c32)cc1 [134H]
42 | > 1000 |  |  | COc1ccc(-n2cnc3c(sc4ncnc(Nc5ccccc5)c43)c2=O)cc1F [95GA]
43 |  | 50 to 150 |  | CN(C)c1ccnc2sc3c(=O)n(-c4ccccc4Cl)cnc3c12 [7F]
44 | < 50 |  | 1.54 | C=CCNc1ncnc2sc3c(=O)n(-c4ccc(Br)cc4)cnc3c12 [95BO]

Row | IC50 [1] [nM] | IC50 [2] [nM] | IC50 [3] [nM] | Compound
45 | < 50 |  |  | C#CCOc1ccnc2sc3c(=O)n(-c4ccc(Cl)cc4)cnc3c12 [66G]
46 | > 1000 |  |  | CCOc1cnnc2sc3c(=O)n(-c4ccc(C)cc4)cnc3c12 [161A]
47 |  | < 50 |  | CN(C)c1ccnc2sc3c(=O)n(-c4ccc5[nH]ccc5c4)cnc3c12 [7AM]
48 |  | < 50 |  | Cc1ccc(-n2cnc3c(sc4nccc(N(C)C)c43)c2=O)cc1Cl [7DG]
49 |  | > 1000 |  | O=c1c2sc3nccc(N4CC[C@H](O)C4)c3c2ncn1C1CCCCC1 [28N]
50 | > 1000 |  |  | COCCNc1ncnc2sc3c(=O)n(CCOC)cnc3c12 [95DX]
51 |  | < 50 |  | CCN(C)c1ccnc2sc3c(=O)n(-c4ccc(C)cc4)cnc3c12 [28AK]
52 |  | > 1000 |  | CN(C)c1ccnc2sc3c(=O)n(NC(=O)C4CC4)c(C4CC4)nc3c12 [65C]
53 | < 50 |  |  | Cc1ccc(-n2cnc3c(sc4nccc(NCCCCO)c43)c2=O)cc1 [28CT]
54 | > 1000 |  |  | O=c1c2sc3ncnc(Nc4ccccc4)c3c2ncn1-c1ccc(F)cc1 [95FZ]
55 |  | > 1000 |  | CN(C)c1ccnc2sc3c(=O)n(Cc4ccc(Cl)c(Cl)c4)cnc3c12 [7S]
56 |  | < 50 | 1.81 | Cc1ccc(-n2cnc3c(sc4nccc(NCC#N)c43)c2=O)cc1 [28AA]
57 |  | < 50 |  | C#CCNc1ccnc2sc3c(=O)n(-c4ccc(C)cc4)c(C)nc3c12 [113K]
58 |  | < 50 |  | CN(C)c1c([N+](=O)[O-])cnc2sc3c(=O)n(C4CCCCC4)cnc3c12 [compound 51]
59 | < 50 |  |  | COc1ccc(-n2cnc3c(sc4ncc(F)c(N(C)C)c43)c2=O)cc1 [compound 192]
60 | > 1000 |  |  | Cc1ccc(-n2cnc3c(sc4ncnc(Nc5ccccc5)c43)c2=O)cc1F [95GB]
61 | 50 to 150 |  |  | C#CCNc1ncnc2sc3c(=O)n(-c4ccc(OC)cc4F)cnc3c12 [95EJ]
62 |  | 150 to 1000 |  | CN(C)c1ccnc2sc3c(=O)n(Cc4ccco4)cnc3c12 [15H]
63 | 50 to 150 |  |  | CC(CO)Nc1ccnc2sc3c(=O)n(-c4ccc(Br)cc4)cnc3c12 (stereo not shown) [28HC]
64 | < 50 |  |  | Cc1ccc(-n2cnc3c(sc4ncc(Br)c(NCCO)c43)c2=O)cc1 [28FN]
65 |  | < 50 |  | COc1ccc(-n2cnc3c(sc4nccc(N(C)C)c43)c2=O)cc1C [7DJ]
66 | 150 to 1000 |  |  | O=c1c2sc3ncnc(NCC4CC4)c3c2ncn1-c1ccc(Br)cc1 [95DS]

Row | IC50 [1] [nM] | IC50 [2] [nM] | IC50 [3] [nM] | Compound
67 | < 50 |  |  | C=C(C)CNc1ncnc2sc3c(=O)n(-c4ccc5sccc5c4)cnc3c12 [95FE]
68 | < 50 |  |  | CN(CCO)c1ccnc2sc3c(=O)n(-c4ccc5c(c4)CCO5)cnc3c12 [28CL]
69 |  | < 50 |  | CN(C)c1ccnc2sc3c(=O)n(-c4ccc(F)cc4)cnc3c12 [7G]
70 | < 50 |  |  | CCNc1ccnc2sc3c(=O)n(-c4ccc5occc5c4)cnc3c12 [28BG]
71 |  | < 50 |  | COc1cccc(-n2cnc3c(sc4nccc(N(C)C)c43)c2=O)c1 [7AA]
72 |  | 50 to 150 |  | Cc1ccc(-n2cnc3c(sc4cccc(N(C)C)c43)c2=O)cc1 [103D]
73 | > 1000 |  |  | Cc1ccc(-n2cnc3c(sc4ncnc(Nc5ccccc5)c43)c2=O)cc1 [95FW]
74 |  | 50 to 150 |  | CC#CCNc1ccnc2sc3c(=O)n(-c4ccc(C)cc4)cnc3c12 [28AD]
75 | < 50 |  |  | COCCCNc1ccnc2sc3c(=O)n(-c4ccc(C)cc4)cnc3c12 [28CZ]
76 | < 50 |  |  | C=C(C)CNc1ccnc2sc3c(=O)n(-c4ccc(C)cc4)cnc3c12 [28EW]
77 | < 50 |  | 0.91 | C#CCNc1ccnc2sc3c(=O)n(-c4ccc(Cl)cc4)cnc3c12 [28DL]
78 | 50 to 150 |  |  | C#CCNc1ncnc2sc3c(=O)n(-c4ccc5c(c4)OCO5)cnc3c12 [95EO]
79 |  | 150 to 1000 |  | CN(C)c1ccnc2sc3c(=O)n(CC4CC4)cnc3c12 [15B]
80 |  | 150 to 1000 |  | O=c1c2sc3c(ccc[n+]3[O-])c2ncn1-c1ccccc1 [12A]
81 | < 50 |  | 1.57 | CCNc1ccnc2sc3c(=O)n(-c4ccc5c(c4)CCO5)cnc3c12 [28BQ]
82 | 150 to 1000 |  |  | O=c1c2sc3nccc(Nc4ccccc4)c3c2ncn1-c1ccc(Cl)cc1 [190C]
83 |  | 150 to 1000 |  | CN(C)c1ccnc2sc3c(=O)n(C4CCCc5ccccc54)cnc3c12 (stereo not shown) [7AI]
84 |  | > 1000 |  | CN(C)c1ccnc2sc3c(=O)n(-c4ccc(I)cc4)cnc3c12 [7M]
85 | < 50 |  |  | C=C(C)CNc1ncnc2sc3c(=O)n(-c4ccc(OC)cc4)cnc3c12 [95FT]
86 | < 50 |  |  | COCCCNc1ccnc2sc3c(=O)n(-c4ccc(O)cc4)cnc3c12 [28HW]
